Molecular target: T1, human FXR (Homo sapiens, UniProt Q96RI1)
T1 construct: expressed in transfected cells; host or cells: HEK293 cells stably carrying a 5xGal4-response-element firefly luciferase reporter, transiently transfected with pcDNA3.1-Gal4-FXR
T1 sequence (Q96RI1 262-486 limits assumed): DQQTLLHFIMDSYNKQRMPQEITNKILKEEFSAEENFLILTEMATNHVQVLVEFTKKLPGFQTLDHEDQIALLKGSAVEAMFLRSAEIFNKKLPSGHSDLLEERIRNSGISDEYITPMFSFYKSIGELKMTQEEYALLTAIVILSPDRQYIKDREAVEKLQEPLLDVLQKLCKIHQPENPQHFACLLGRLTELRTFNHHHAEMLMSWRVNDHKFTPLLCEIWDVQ
Test: transient human FXR/Gal4-luciferase reporter assay
Format: cell-based
Conditions: Gal4-hFXR fusion construct, luciferase reporter HEK293 cells, response relative to 8 μM GW-4064
Experimental: The exemplified compounds of the present invention were tested in the transient human FXR/Gal4-luciferase reporter assay, and assay results were reported in Table 1 and Examples 1 to 3 together with other analytical data.
A Gal4-hFXR fusion construct reporter system was used as the primary assay to characterize compound activity. A construct including 5 copies of the Gal4 promoter response element upstream of a firefly luciferase reporter cDNA was stably expressed in HEK293 cells. This reporter cell line was maintained in Dulbecco's Modified Eagle's medium (DMEM; Gibco) supplemented with 1% penicillin-streptomycin (P/S) solution, 500 μg/mL Zeocin and 10% charcoal/dextran-treated fetal bovine serum (cs-FBS) at 37° C. in a humidified 5% CO2 atmosphere. Another plasmid was constructed in which the human cytomegalovirus promoter in the pcDNA3.1 vector directs the expression of the cDNA encoding a fusion protein comprised of the DNA binding domain from the Gal4 transcription factor fused to the ligand binding domain from human FXR.
The day prior to transfection, the reporter cells in culture are detached from the plate with trypsin and plated into a T75 flask at a sufficient density to achieve approximately 90% confluence the next morning. The transfection reagents are prepared by separately diluting 25 μg of the pcDNA3.1-Gal4-FXR plasmid into 1.87 mL of Opti-MEM (Thermo-Fisher), and 40 μL of Lipofectamine 2000 (Thermo-Fisher) into 1.87 mL of Opti-MEM, and then adding the diluted DNA solution into the diluted Lipofectamine 2000 solution and incubating at room temperature for 15-20 minutes. The mixture is further diluted with 10 mL of a solution comprised of DMEM, 10% cs-FBS, and 1% P/S immediately prior to transferring to the cells. The maintenance culture media is aspirated from the cells and the final transfection mixture is added before the cells are incubated overnight at 37° C. in a humidified 5% CO2 atmosphere. This protocol can be scaled up, and the transiently transfected cells can be cryopreserved in an assay-ready format.
For compound testing, 100 nL of the compounds (serial dilutions in DMSO) are dispensed with an Echo acoustic dispenser (Labcyte) into the wells of a Corning/Costar clear bottom 384-well white plate. The transfected cells are harvested, counted, and diluted such that 10-25,000 cells in 25 μL are plated into each well of the 384-well compound assay plate. The compound-treated cells are incubated overnight at 37° C. in a humidified 5% CO2 atmosphere. The next morning 25 μL of Steady-Glo (Promega) are added to each well of the plate, the mixture is incubated for 15 min. with shaking, and luminescence is measured on an Envision (Perkin Elmer) plate reader. Background counts from cells treated with DMSO alone are subtracted from all raw counts, and the corrected values are converted to a percentage of the control response attained with 8 μM GW-4064.

EC50 (unit inferred)	EC50	Compound
139 nM		Cc1cc(OCC2CC3(CC(/C=C/c4c(-c5ccccc5C(F)(F)F)noc4C4CC4)C3)C2)cnc1C(=O)O (single isomer, unassigned) [Example 31, (E)-5-((6-(2-(5-Cyclopropyl-3-(2-(trifluoromethyl)phenyl)isoxazol-4-yl)vinyl)spiro [3.3]heptan-2-yl)methoxy)-3-methylpicolinic acid]
	155 nM	COc1cc(C(=O)O)nc2ccc(N3CC4(CC(/C=C/c5c(-c6c(Cl)cncc6Cl)noc5C5CC5)C4)C3)cc12 [Example 1, (E)-6-(6-(2-(5-Cyclopropyl-3-(3,5-dichloropyridin-4-yl)isoxazol-4-yl)vinyl)-2-azaspiro[3.3]heptan-2-yl)-4-methoxyquinoline-2-carboxylic acid]
	501 nM	COc1cc(C(=O)O)nc2ccc(N3CC4(CC(/C=C/c5c(-c6ccncc6Cl)noc5C5CC5)C4)C3)cc12 [Example 2, (E)-6-(6-(2-(3-(3-chloropyridin-4-yl)-5-cyclopropylisoxazol-4-yl)vinyl)-2-azaspiro[3.3]heptan-2-yl)-4-methoxyquinoline-2-carboxylic acid]
60 nM		O=C(O)c1cc(C(F)(F)F)c2cc(N3CC4(CC(/C=C/c5c(-c6c(Cl)cccc6Cl)noc5C5CC5)C4)C3)ccc2n1 [Example 4]
130 nM		O=C(O)c1ccc(N2CC3(CC(/C=C/c4c(-c5c(Cl)cccc5Cl)noc4C4CC4)C3)C2)cc1 [Example 5]
140 nM		O=C(O)c1cc(C(F)(F)F)c2cc(N3CC4(CC(/C=C/c5c(-c6ccncc6Cl)noc5C5CC5)C4)C3)ccc2n1 [Example 6]
530 nM		O=C(O)c1cc(C(F)(F)F)c2cc(N3CC4(CC(/C=C/c5c(-c6c(Cl)cncc6Cl)noc5C5CC5)C4)C3)ccc2n1 [Example 7]
137 nM		O=C(O)c1cc(C(F)(F)F)c2cc(N3CC4(CC(/C=C/c5c(-c6ccccc6C(F)(F)F)noc5C5CC5)C4)C3)ccc2n1 [Example 8]
268 nM		Cc1cc(C(=O)O)nc2sc(N3CC4(CC(/C=C/c5c(-c6ccccc6C(F)(F)F)noc5C5CC5)C4)C3)nc12 [Example 9]
667 nM		O=C(O)c1cc(F)c2nc(N3CC4(CC(/C=C/c5c(-c6c(Cl)cncc6Cl)noc5C5CC5)C4)C3)sc2c1 [Example 10]
79 nM		CC(C)Oc1cc(C(=O)O)nc2ccc(N3CC4(CC(/C=C/c5c(-c6c(Cl)cncc6Cl)noc5C5CC5)C4)C3)cc12 [Example 11]
29 nM		CC(C)Oc1cc(C(=O)O)nc2ccc(N3CC4(CC(/C=C/c5c(-c6ccccc6C(F)(F)F)noc5C5CC5)C4)C3)cc12 [Example 12]
429 nM		Cc1nc(C(=O)O)cc2ccc(N3CC4(CC(/C=C/c5c(-c6c(Cl)cncc6Cl)noc5C5CC5)C4)C3)cc12 [Example 13]
302 nM		CCc1nc(C(=O)O)cc2ccc(N3CC4(CC(/C=C/c5c(-c6c(Cl)cncc6Cl)noc5C5CC5)C4)C3)cc12 [Example 14]
85 nM		CC(C)Oc1cc(C(=O)O)nc2ccc(N3CC4(CC(/C=C/c5c(-c6ncccc6C(F)(F)F)noc5C5CC5)C4)C3)cc12 [Example 15]
104 nM		COc1cc(C(=O)O)nc2ccc(N3CC4(CC(/C=C/c5c(-c6ccccc6C(F)(F)F)noc5C5CC5)C4)C3)cc12 [Example 16]
85 nM		O=C(O)c1cc(OC2CCC2)c2cc(N3CC4(CC(/C=C/c5c(-c6c(Cl)cncc6Cl)noc5C5CC5)C4)C3)ccc2n1 [Example 17]
52 nM		O=C(O)c1cc(OC2COC2)c2cc(N3CC4(CC(/C=C/c5c(-c6ccccc6C(F)(F)F)noc5C5CC5)C4)C3)ccc2n1 [Example 18]
169 nM		COc1nc(C(=O)O)cc2ccc(N3CC4(CC(/C=C/c5c(-c6ccccc6C(F)(F)F)noc5C5CC5)C4)C3)cc12 [Example 19]

Compound	EC50 (unit inferred)	EC50
O=C(O)c1cc(OC2CCC2)c2cc(N3CC4(CC(/C=C/c5c(-c6cccnc6C(F)(F)F)noc5C5CC5)C4)C3)ccc2n1 [Example 3, (E)-4-Cyclobutoxy-6-(6-(2-(5-cyclopropyl-3-(2-(trifluoromethyl)pyridin-3-yl)isoxazol-4-yl)vinyl)-2-azaspiro[3.3]heptan-2-yl)quinoline-2-carboxylic acid]		86 nM

From patent publication US11286252B2, “Alkene spirocyclic compounds as farnesoid X receptor modulators” (BRISTOL-MYERS SQUIBB COMPANY, priority 2017, dated 2022)
